Tested on: saquinavir antiserum
Test: Assay specificity determination: competitive microtiter plate ELISA with saquinavir-BSA coated plate and saquinavir antiserum
Format: binding, sheep
Settings: for dose-response of optical density at 450 nm (competition for antiserum binding): serial three-fold dilutions of drug in PBS-TWEEN, antiserum 1:12,800, 62.5 ng/ml saquinavir-BSA coat
Experimental: Corning micro-ELISA plates (96 wells) were used throughout. The saquinavir-BSA conjugate was diluted to 2 μg/ml in 0.1 M sodium carbonate buffer, pH 9.5. One hundred microliters of the buffer was placed in the wells of each row of the plate except the first row. The first row was filled with 200 μL of the 2 μg/ml saquinavir-BSA solution, and a twelve-tip micropipettor was used to transfer 100 μl from the first row to the second row of all columns at the same time. Mixing of contents of the second row was accomplished by re-pipetting 3 times. One hundred microliters from the second row was then transferred to the third row and mixed. This was repeated to the last row of the plate. After mixing, 100 μl was removed from the last row and discarded. The plate was placed in a humidified Zip-Loc bag and incubated for 1 hour at 37° C. After incubation, the plate was removed from the incubator and bag and emptied into a waste container. PostCoat solution was added to each well in the amount of 200 μl. This solution consisted of 1% gelatin hydrolysate, 2% sucrose, 0.15 M Tris, pH 7.4, 0.17% TWEEN 20 (ICI Americas Inc.), and 0.02% Thimerosal preservative. All reagents were from Sigma Chemicals. The plate was returned to the humidified bag and placed in the incubator for 1 hour. Five minutes before the incubation was complete, Zymed rabbit anti-sheep IgG-HRP conjugate was diluted 1:2000 in PBS-TWEEN and vortexed gently to completely mix. Upon completion of the hour incubation, the plate was washed 4 times with 300 μl of PBS-TWEEN using a BioTek Instruments, Inc. EL404 plate washer. One hundred microliters of the diluted rabbit anti-sheep IgG-HRP conjugate was then pipetted into each well, the plate re-bagged and incubated for 1 hour. At the completion of the hour, the plate was removed from the incubator and bag and washed six times on the plate washer. One hundred microliters of K-BLUE enzyme substrate (Neogen, Inc.) was then added to each well and color allowed to develop in the dark for 5 minutes. Color development was halted by the addition of 100 μl of 1 N hydrochloric acid to each well. The optical density of each well was measured at two wavelengths, 405 nm and 450 nm using a Molecular Devices, Inc. ThermoMax plate reader. […] Therefore, the OD405 measurements were used to calculate the extrapolated OD450 by the well-known method of using a linear least squares regression of readings at both wavelengths. An ELISA plate was coated with the above concentrations of saquinavir-BSA using the same conditions as set forth above. While the plates were being PostCoated, serial three-fold dilutions of saquinavir, ritonavir, indinavir, and nelfinavir were prepared in a 1 ml capacity 96-well plate. All drugs were prepared at 1 mg/ml in absolute methanol and stored at 4° C. until used. […]

CC(C)(C)NC(=O)[C@@H]1C[C@@H]2CCCC[C@@H]2CN1C[C@@H](O)[C@H](Cc1ccccc1)NC(=O)[C@H](CC(N)=O)NC(=O)c1ccc2ccccc2n1 [saquinavir]
inhibition with respect to zero drug (lowest non-zero drug concentration in Example 5 (7 dilution steps)): ~50% | dose-response of optical density at 450 nm (competition for antiserum binding): dose-response curve

Cc1c(O)cccc1C(=O)N[C@@H](CSc1ccccc1)[C@H](O)CN1C[C@H]2CCCC[C@H]2C[C@H]1C(=O)NC(C)(C)C [nelfinavir]
cross-reaction of the antiserum (relative to saquinavir, calculated from OD450 dose-response data): 0.4% | dose-response of optical density at 450 nm (competition for antiserum binding): lesser response

Reference: patent publication US20070148684A1, “IMMUNOASSAY FOR HIV PROTEASE INHIBITORS” (priority 2000, published 2007)
